Some results are limits rather than exact numbers.

Assay [1] has as its target T1, vesamicol receptors (Rattus norvegicus, UniProt Q62666).
T1 sequence (Q62666 1-530): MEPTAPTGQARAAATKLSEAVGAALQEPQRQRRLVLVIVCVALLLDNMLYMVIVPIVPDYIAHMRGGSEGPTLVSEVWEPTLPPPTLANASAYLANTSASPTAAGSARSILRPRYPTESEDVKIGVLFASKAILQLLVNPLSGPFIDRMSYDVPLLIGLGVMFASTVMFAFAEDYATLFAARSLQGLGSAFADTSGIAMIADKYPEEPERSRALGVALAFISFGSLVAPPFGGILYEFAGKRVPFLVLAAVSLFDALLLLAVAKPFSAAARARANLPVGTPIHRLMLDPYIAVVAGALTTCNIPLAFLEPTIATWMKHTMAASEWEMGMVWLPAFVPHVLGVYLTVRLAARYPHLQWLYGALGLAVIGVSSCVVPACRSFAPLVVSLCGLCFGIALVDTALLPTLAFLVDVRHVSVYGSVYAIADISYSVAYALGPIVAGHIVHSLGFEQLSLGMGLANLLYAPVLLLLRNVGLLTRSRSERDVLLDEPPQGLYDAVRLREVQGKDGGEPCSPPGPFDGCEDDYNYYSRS
In words: Inhibition experiment: inhibition of binding of radioactive-iodine-labeled DRC140 to P2 fractions. More on the design: Synaptic vesicles were extracted and separated from the brain of a rat; from tissue; host or cells: rat brain without cerebellum: P2, crude synaptic vesicles, purified synaptic vesicles.

Assay [2] deals with T1, vesamicol receptors. Kind of assay: Receptor binding test: inhibition of I-125 labeled 5-iodobenzo vesamicol binding to brain homogenate. Set-up: from tissue; host or cells: rat brain without cerebellum, P2 fraction; species or system Male Wistar rats. The note with it: Inhibitive concentration at 50% (IC50), Vesamicol receptor, Table 5; incubated three hours at 37°C; no unit printed in table (b19 gives nM for DRC140). How it is done:
(§1) Properties relating to binding of the vesamicol piperazine derivatives of the present invention to various receptors were examined as follows. Specifically, ligands which combine with each receptor were incubated together with homogenates prepared as follows.
To measure affinity of vesamicol receptors, I-125 labeled 5-iodobenzo vesamicol (synthesized and labeled according to Jung et al., J. Med. Chem. 33, 2065-2068, 1990) was added to a brain homogenate prepared as follows. The vesamicol piperazine derivatives synthesized in the Examples were added at various concentrations. The mixture was then incubated for three hours at 37°C.
(§2) B (%) =((1 0 0 × [U])^(∩))/([ I C50 (])^(∩) (+ [U])^(∩)) [formula] wherein B(%) is the proportion of specific binding in the total binding, n indicates a Hill coefficient, and U is the concentration of unbound ligand.
Male Wistar rats were anesthetized with ether and were decapitated. The brains were immediately extracted. The cerebella were removed from the brains. 0.32 M sucrose (containing 4 mM HEPES (pH 7.4)) in an amount of five times the wet amount (weight) of this sample was added. The sample was homogenized by a potter-type homogenizer for 12 strokes while cooling with ice. 0.32 M sucrose in the same amount as the homogenate (total: 10 times the wet amount of the original sample) was added. The suspension thus obtained was centrifuged for 5 minutes at 1,000 x g. The precipitate was removed. The supernatant liquid was centrifuged at 9,200 x g for 15 minutes to separate the precipitate from the supernatant liquid. P2 fractions were suspended in a Tris-HCl buffer (pH 7.4) for binding experiments and stored at -80°C until the start of the binding experiment.

A further assay addresses T2, sigma receptors (Cavia porcellus, UniProt Q60492).
T2 construct: The brain was immediately extracted; The cerebellum was removed from the brain; from tissue; host or cells: guinea pig brain without cerebellum, membrane pellet
Kind of assay: Receptor binding test: inhibition of tritium-labeled (+) pentazocine binding to brain homogenate. More on the design: species or system male guinea pig. How it is done: as §1
To measure affinity to sigma receptors, tritium-labeled (+) pentazocine was added to a brain homogenate prepared as follows. The vesamicol piperazine derivatives synthesized in the Examples were added at various concentrations, and the mixture was incubated for two hours at room temperature.
as §2
A male guinea pig was anesthetized with ether and was decapitated. The brain was immediately extracted. The cerebellum was removed from the brain. 10 mM Tris-sucrose buffer solution (0.32 M sucrose + 10 mM Tris-HCl (pH 7.4)) was added in the amount of 10 ml/g of the tissue. The mixture was homogenized by a potter-type homogenizer for 6-10 strokes. The homogenate was centrifuged at 1,000 x g for 10 minutes at 4°C and the supernatant liquid was collected. The resulting pellets were suspended in the Tris-sucrose buffer solution at the concentration of 2 ml/g, followed by centrifugation at 1,000 x g for 10 minutes at 4°C. The supernatant liquids obtained by the two centrifugation at 1,000 x g were combined and centrifuged at 31,000 x g for 15 minutes at 4°C. The resulting pellets were suspended in a 10 mM Tris-HCl buffer solution (pH 7.4) at a concentration of 3 ml/g of tissue and incubated for 30 minutes at 25°C. After incubation, the suspension was centrifuged at 31,000 x g for 15 minutes at 4°C. The pellets obtained were suspended in a 10 mM Tris-HCl buffer solution (pH 7.4) to make a final concentration of 1.53 ml/g of tissue. The suspension was homogenized by a potter-type homogenizer for 5 strokes. The homogenate was stored at -80°C until the start of the experiment.

[3] abbreviates: inhibitive concentration at 50% (IC50), Receptor Vesamicol.
Setting [4] is: inhibitive concentration at 50% (IC50), Receptor Sigma-1.
Setting [5] is: Inhibitive concentration at 50% (IC50), Sigma α-1 receptor.
Setting [6] is: Table 7, P2 fractions, inhibition of radioactive-iodine-labeled DRC140 binding, Binding site names the inhibitor's own site, read-out: IC50 (nM) Average ± S.D.

T2 sequence (Q60492 whole entry): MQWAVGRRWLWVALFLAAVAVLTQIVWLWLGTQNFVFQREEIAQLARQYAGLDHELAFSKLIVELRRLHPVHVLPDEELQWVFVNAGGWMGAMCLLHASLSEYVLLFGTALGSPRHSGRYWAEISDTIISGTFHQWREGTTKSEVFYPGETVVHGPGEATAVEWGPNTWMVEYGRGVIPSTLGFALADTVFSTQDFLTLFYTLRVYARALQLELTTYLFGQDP

Turning to `OC1CCCCC1N1CCC(c2ccccc2)CC1` (single isomer, unassigned; (+)) [(+)-Vesamicol, 2-(4-phenyl-piperidino)cyclohexanol, reference compound], at vesamicol receptors [1] (IC50 (nM) Average ± S.D), the IC50 was greater than 5000 nM.

As for `Cc1ccc(N2CCN([C@@H]3Cc4c(I)cccc4C[C@H]3O)CC2)cc1` (racemic) [DRF381, (±)-trans-5-iodo-2-hydroxy-3-[4-[4-methylphenyl]piperazinyl]tetralin], the figures for the IC50 at vesamicol receptors [1] (setting [3]), at vesamicol receptors [2] and on sigma receptors (setting [4]) were 14.7 nM, 13.9 nM and 4780 nM, respectively.

Consider `Cc1ccc(C)c(N2CCN([C@@H]3Cc4c(I)cccc4C[C@H]3O)CC2)c1` (racemic) [DRE348, (±)-trans-5-iodo-2-hydroxy-3-[4-[2,5-dimethylphenyl]piperazinyl]tetralin], for which the IC50 stood at 1.16 nM at vesamicol receptors [1] (setting [3]), 0.78 nM at vesamicol receptors [2], 1500 nM on sigma receptors (setting [5]) and 5570 nM on sigma receptors (setting [4]).

Turning to `Nc1ccccc1N1CCN([C@@H]2Cc3c(I)cccc3C[C@H]2O)CC1` (racemic) [DRF402, (±)-trans-5-iodo-2-hydroxy-3-[4-[2-aminophenyl]piperazinyl]tetralin], on vesamicol receptors [1] (setting [3]), the IC50 came to 0.63 nM.

Regarding `COc1ccccc1N1CCN([C@@H]2Cc3c(I)cccc3C[C@H]2O)CC1` (racemic) [DRF400, (±)-trans-5-iodo-2-hydroxy-3-[4-[2-methoxyphenyl]piperazinyl]tetralin], the IC50 at vesamicol receptors [1] (setting [3]) stood at 1.09 nM; at sigma receptors (setting [4]), 28800 nM.

In the case of `Cc1ccccc1N1CCN([C@@H]2Cc3c(I)cccc3C[C@H]2O)CC1` (racemic) [DRE334, (±)-trans-5-iodo-2-hydroxy-3-[4-[2-methylphenyl]piperazinyl]tetralin], the IC50 turned out to be 0.74 nM at vesamicol receptors [1] (setting [3]), 0.72 nM at vesamicol receptors [2], 109 nM at sigma receptors (setting [5]) and 4480 nM at sigma receptors (setting [4]).

`COC(=O)[C@H]1[C@H]2C[C@@H]3c4[nH]c5cc(OC)ccc5c4CCN3C[C@H]2C[C@@H](OC(=O)c2cc(OC)c(OC)c(OC)c2)[C@@H]1OC` [Reserpine, reference compound]: on vesamicol receptors [1] (setting [6]), the IC50 is greater than 5000 nM.

In the case of `COc1ccc(C)c(N2CCN([C@@H]3Cc4c(I)cccc4C[C@H]3O)CC2)c1` (racemic) [DRE378, (±)-trans-5-iodo-2-hydroxy-3-[4-[5-methoxy-2-methylphenyl]piperazinyl]tetralin], on vesamicol receptors [2], the IC50 is 5.09 nM.

`Oc1ccccc1N1CCN([C@@H]2Cc3c(I)cccc3C[C@H]2O)CC1` (racemic) [DRF403, (±)-trans-5-iodo-2-hydroxy-3-[4-[2-hydroxyphenyl]piperazinyl]tetralin]: the IC50 amounted to 2.42 nM at vesamicol receptors [1] (setting [3]) and 3030 nM on sigma receptors (setting [4]).

In turn, `O[C@@H]1Cc2cccc(I)c2C[C@H]1N1CCN(c2ccccn2)CC1` (racemic) [DRE328, (±)-trans-5-iodo-2-hydroxy-3-[4-[2-pyridyl]-piperazinyl]tetralin] came in with an IC50 at vesamicol receptors [2] of 38.4 nM.

On to `Cc1cccc(C)c1N1CCN([C@@H]2Cc3c(I)cccc3C[C@H]2O)CC1` (racemic) [DRF382, (±)-trans-5-iodo-2-hydroxy-3-[4-[2,6-dimethylphenyl]piperazinyl]tetralin], for which the IC50 came out at 6.94 nM on vesamicol receptors [1] (setting [3]), 5.04 nM at vesamicol receptors [2] and 1300 nM at sigma receptors (setting [5]).

In the case of `CNC(=O)Oc1ccc2c(c1)[C@]1(C)CCN(C)[C@@H]1N2C` [Physostigmine, reference compound], at vesamicol receptors [1] (IC50 (nM) Average ± S.D), the IC50 was greater than 5000 nM.

As for `Cc1ccc(C)c(N2CCN([C@@H]3Cc4ccc(I)cc4C[C@H]3O)CC2)c1` (racemic) [DRE366, (±)-trans-7-iodo-2-hydroxy-3-[4-[2,5-dimethylphenyl]-piperazinyl]tetralin], the IC50 at vesamicol receptors [1] (setting [3]) came to 0.88 nM; on vesamicol receptors [2], 1.14 nM; on sigma receptors (setting [5]) it was 203 nM; on sigma receptors (setting [4]) it was 203 nM.

On to `COc1ccccc1N1CCN(CCCNc2c(C)c(=O)n(C)c(=O)n2C)CC1` [5-Methylurapidil, reference compound], for which the IC50 at vesamicol receptors [1] (IC50 (nM) Average ± S.D) is greater than 5000 nM.

As for `CN(C(=O)Cc1ccc(Cl)c(Cl)c1)C(CN1CCCC1)c1cccc(OCC(=O)O)c1` (centres unmarked) [ICI204, 448, reference compound], the IC50 on vesamicol receptors [1] (IC50 (nM) Average ± S.D) is greater than 5000 nM.

Take `Nc1ccccc1N1CCN([C@@H]2Cc3cc(I)ccc3C[C@H]2O)CC1` (racemic) [DRG446, (±)-trans-6-iodo-2-hydroxy-3-[4-[2-aminophenyl]piperazinyl]tetralin]: the IC50 is 0.38 nM on vesamicol receptors [1] (setting [3]) and 544 nM on sigma receptors (setting [4]).

Take `Cc1ccccc1N1CCN([C@@H]2Cc3c(I)cccc3C[C@H]2O)CC1` (single isomer, unassigned) [DRE341, (+)-trans-5-iodo-2-hydroxy-3-[4-[2-methylphenyl]piperazinyl]tetralin]: on vesamicol receptors [1] (setting [3]), the IC50 amounted to 1.96 nM.

Consider `CC1=NN=C(c2ccc(N)cc2)c2cc3c(cc2C1)OCO3` [GYKI52466, reference compound], for which, on vesamicol receptors [1] (IC50 (nM) Average ± S.D), the IC50 was greater than 5000 nM.

As to `COc1ccccc1N1CCN(CCCCN2C(=O)c3ccccc3C2=O)CC1` [NAN-190, reference compound], on vesamicol receptors [1] (setting [6]), the IC50 was greater than 5000 nM.

On to `Cc1ccccc1N1CCN([C@@H]2Cc3cccc(I)c3C[C@H]2O)CC1` (racemic) [DRE335, (+)-trans-8-iodo-2-hydroxy-3-[4-[2-methylphenyl]piperazinyl]tetralin], for which the IC50 on vesamicol receptors [2] worked out at 2.8 nM.

On to `Cc1ccc(C)c(N2CCN([C@@H]3Cc4cc(I)ccc4C[C@H]3O)CC2)c1` (racemic) [DRE365, (±)-trans-6-iodo-2-hydroxy-3-[4-[2,5-dimethylphenyl]piperazinyl]tetralin], for which the IC50 on vesamicol receptors [2] was found to be 2.9 nM.

In the case of `Nc1ccccc1N1CCN([C@@H]2Cc3c(I)cccc3C[C@H]2O)CC1` (single isomer, unassigned) [DRF419, (-)-trans-5-iodo-2-hydroxy-3-[4-[2-aminophenyl]piperazinyl]tetralin], the results for the IC50 on vesamicol receptors [1] (setting [3]) and on sigma receptors (setting [4]) were 0.3 nM and 4710 nM, respectively.

As for `CC(=O)Nc1ccccc1N1CCN([C@@H]2Cc3c(I)cccc3C[C@H]2O)CC1` (racemic) [DRF401, (±)-trans-5-iodo-2-hydroxy-3-[4-[N-acetyl-2-aminophenyl]-piperazinyl]tetralin], the IC50 at vesamicol receptors [1] (setting [3]) was determined as 0.89 nM.

Regarding “5-iodobenzovesamicol [(+)-IBVM, reference compound]”, on vesamicol receptors [1] (read-out: inhibitive concentration at 50% (IC50), Receptor Vesamicol, Table 9, high purity derivatives (HPLC purified), I-125 labeled DRC140, P2 fractions, 3 hours at 37°C, unit inferred), the IC50 amounted to 0.5 nM.
